Measured values taken from patent publication US20140113898A1, “BISARYLSULFONE AND DIALKYLARYLSULFONE COMPOUNDS AS CALCIUM CHANNEL BLOCKERS” (Zalicus Pharmaceuticals Ltd., priority 2010, published 2014).
Read-outs that look alike come from different tables or passages of the source.

Legend:
Type in all cases: cell-based
CaV2.2 = target: T1, CaV2.2 (Homo sapiens, UniProt Q00975); assay: High-throughput CaV2.2/Kir2.3 FLIPR fluorescent assay; settings: Fluo-4 FLIPR, closed or inactivated state not stated, read-out: FLIPR data CaV2.2
T1 construct: expressed in transfected cells; host or cells: unnamed doxycycline-inducible cell line
Procedure, shortened: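 IC50 was derived by logistic fitting of the FLIPR Fluo-4 signal recorded over 3 min after a 130 mM KCl stimulus. Before stimulation, cells (channel expression induced with doxycycline, 29 °C on assay day) were kept in pH 7.4 buffer with 2 mM KCl for the closed-state format or 12.5 mM KCl for the inactivated-state format.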

CaV3.1 = target: T2, CaV3.1 (Homo sapiens, UniProt O43497); assay: High-throughput CaV3.1 T-type FLIPR fluorescent assay; settings: Fluo-4 FLIPR
T2 construct: expressed in transfected cells; host or cells: unnamed doxycycline-inducible cell line
Procedure: Cells were plated in 384-well, clear-bottom, black-walled, poly-D-lysine coated plates (Becton Dickinson, Franklin Lake, N.J.) 2 days prior to use in the FLIPR assay. 100 μL of cells (2.0×10^6 cell/mL) containing doxycyline (Sigma-Aldrich, 1.5 μg/mL; to induce channel expression) were added to each well using a Multidrop (Thermo Scientific, Waltham, Mass.) and were maintained in 5% CO2 incubator at 37° C. On the morning of the assay, cells were transferred to a 5% CO2 incubator at 29° C.
Cells were washed with a wash buffer containing (in mM): 118 NaCl, 18.4 HEPES, 11.7 D-glucose, 0.05 CaCl2, 0.5 MgSO4, 1 KCl, and 1.2 KH2PO4, with the pH adjusted to 7.2 with NaOH. 4.4 μM of the fluorescent indicator dye, Fluo-4 (Invitrogen), prepared in pluronic acid
(Sigma-Aldrich), was loaded into the wells and incubated for 45 minutes at 29° C. in 5% CO2. Cells were then rinsed with the following low Ca^2+ buffer (in mM): 0.34 Na2HPO4, 4.2 NaHCO3, 0.44 KH2PO4, 0.41 MgSO4, 0.49 MgCl2-6H2O, 20 HEPES, 5.5 D-Glucose, 137 NaCl, 5.3 KCl, and 0.001 CaCl2, with 0.1% BSA and the pH adjusted to 7.2 with NaOH. Concentration-dependent response curves were generated from 5 mM stock solutions prepared in DMSO (Sigma-Aldrich) and diluted in the buffer containing low Ca^2+ and incubated for 20 minutes at 29° C. in 5% CO2. Calcium entry was evoked with an addition of (in mM): 0.34 Na2HPO4, 4.2 NaHCO3, 0.44 KH2PO4, 0.41 MgSO4, 0.49 MgCl2-6H2O, 20 HEPES, 5.5 D-Glucose, 137 NaCl, 5.3 KCl, and 6 CaCl2, with 0.1% BSA and the pH adjusted to 7.2 with NaOH. A change in the Fluo-4 fluorescence signal was assessed using FLIPR^TETRA™ instrument (Molecular Devices, Sunnyvale, Calif.) for 3 minutes following the elevation of extracellular KCl using an illumination wavelength of 470-495 nm with emissions recorded at 515-575 nm.
Concentration-dependent response curves were obtained by comparing the fluorescence signal in the presence of compound and fitted with a logistic function (1) to obtain the concentration that inhibited 50% (IC50) of the RLU signal using OriginPro v.7.5 software (OriginLab, Northampton, Mass.).
To assess the quality of the FLIPR assays the Z-factor (2) was used to quantify the suitability of the assay conditions using the following equation: […]
Data are expressed as mean and standard deviation (SD).

CaV3.2 = target: T3, CaV3.2 (Homo sapiens, UniProt O95180); assay: High-throughput CaV3.2/Kir2.3 T-type FLIPR fluorescent assay; settings: Fluo-4 FLIPR, closed or inactivated state not stated
T3 construct: expressed in transfected cells; host or cells: unnamed doxycycline-inducible cell line
Procedure, shortened: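 Doxycycline-induced cells loaded with Fluo-4, preincubated 20 min at 29°C with compound in 2 mM KCl (closed-state) or 7.6 mM KCl (inactivated-state) buffer, pH 7.4. Calcium entry triggered by 12 mM or 14.5 mM KCl respectively; fluorescence read 3 min by FLIPR, IC50 from logistic fit.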

T1 sequence (Q00975 whole entry): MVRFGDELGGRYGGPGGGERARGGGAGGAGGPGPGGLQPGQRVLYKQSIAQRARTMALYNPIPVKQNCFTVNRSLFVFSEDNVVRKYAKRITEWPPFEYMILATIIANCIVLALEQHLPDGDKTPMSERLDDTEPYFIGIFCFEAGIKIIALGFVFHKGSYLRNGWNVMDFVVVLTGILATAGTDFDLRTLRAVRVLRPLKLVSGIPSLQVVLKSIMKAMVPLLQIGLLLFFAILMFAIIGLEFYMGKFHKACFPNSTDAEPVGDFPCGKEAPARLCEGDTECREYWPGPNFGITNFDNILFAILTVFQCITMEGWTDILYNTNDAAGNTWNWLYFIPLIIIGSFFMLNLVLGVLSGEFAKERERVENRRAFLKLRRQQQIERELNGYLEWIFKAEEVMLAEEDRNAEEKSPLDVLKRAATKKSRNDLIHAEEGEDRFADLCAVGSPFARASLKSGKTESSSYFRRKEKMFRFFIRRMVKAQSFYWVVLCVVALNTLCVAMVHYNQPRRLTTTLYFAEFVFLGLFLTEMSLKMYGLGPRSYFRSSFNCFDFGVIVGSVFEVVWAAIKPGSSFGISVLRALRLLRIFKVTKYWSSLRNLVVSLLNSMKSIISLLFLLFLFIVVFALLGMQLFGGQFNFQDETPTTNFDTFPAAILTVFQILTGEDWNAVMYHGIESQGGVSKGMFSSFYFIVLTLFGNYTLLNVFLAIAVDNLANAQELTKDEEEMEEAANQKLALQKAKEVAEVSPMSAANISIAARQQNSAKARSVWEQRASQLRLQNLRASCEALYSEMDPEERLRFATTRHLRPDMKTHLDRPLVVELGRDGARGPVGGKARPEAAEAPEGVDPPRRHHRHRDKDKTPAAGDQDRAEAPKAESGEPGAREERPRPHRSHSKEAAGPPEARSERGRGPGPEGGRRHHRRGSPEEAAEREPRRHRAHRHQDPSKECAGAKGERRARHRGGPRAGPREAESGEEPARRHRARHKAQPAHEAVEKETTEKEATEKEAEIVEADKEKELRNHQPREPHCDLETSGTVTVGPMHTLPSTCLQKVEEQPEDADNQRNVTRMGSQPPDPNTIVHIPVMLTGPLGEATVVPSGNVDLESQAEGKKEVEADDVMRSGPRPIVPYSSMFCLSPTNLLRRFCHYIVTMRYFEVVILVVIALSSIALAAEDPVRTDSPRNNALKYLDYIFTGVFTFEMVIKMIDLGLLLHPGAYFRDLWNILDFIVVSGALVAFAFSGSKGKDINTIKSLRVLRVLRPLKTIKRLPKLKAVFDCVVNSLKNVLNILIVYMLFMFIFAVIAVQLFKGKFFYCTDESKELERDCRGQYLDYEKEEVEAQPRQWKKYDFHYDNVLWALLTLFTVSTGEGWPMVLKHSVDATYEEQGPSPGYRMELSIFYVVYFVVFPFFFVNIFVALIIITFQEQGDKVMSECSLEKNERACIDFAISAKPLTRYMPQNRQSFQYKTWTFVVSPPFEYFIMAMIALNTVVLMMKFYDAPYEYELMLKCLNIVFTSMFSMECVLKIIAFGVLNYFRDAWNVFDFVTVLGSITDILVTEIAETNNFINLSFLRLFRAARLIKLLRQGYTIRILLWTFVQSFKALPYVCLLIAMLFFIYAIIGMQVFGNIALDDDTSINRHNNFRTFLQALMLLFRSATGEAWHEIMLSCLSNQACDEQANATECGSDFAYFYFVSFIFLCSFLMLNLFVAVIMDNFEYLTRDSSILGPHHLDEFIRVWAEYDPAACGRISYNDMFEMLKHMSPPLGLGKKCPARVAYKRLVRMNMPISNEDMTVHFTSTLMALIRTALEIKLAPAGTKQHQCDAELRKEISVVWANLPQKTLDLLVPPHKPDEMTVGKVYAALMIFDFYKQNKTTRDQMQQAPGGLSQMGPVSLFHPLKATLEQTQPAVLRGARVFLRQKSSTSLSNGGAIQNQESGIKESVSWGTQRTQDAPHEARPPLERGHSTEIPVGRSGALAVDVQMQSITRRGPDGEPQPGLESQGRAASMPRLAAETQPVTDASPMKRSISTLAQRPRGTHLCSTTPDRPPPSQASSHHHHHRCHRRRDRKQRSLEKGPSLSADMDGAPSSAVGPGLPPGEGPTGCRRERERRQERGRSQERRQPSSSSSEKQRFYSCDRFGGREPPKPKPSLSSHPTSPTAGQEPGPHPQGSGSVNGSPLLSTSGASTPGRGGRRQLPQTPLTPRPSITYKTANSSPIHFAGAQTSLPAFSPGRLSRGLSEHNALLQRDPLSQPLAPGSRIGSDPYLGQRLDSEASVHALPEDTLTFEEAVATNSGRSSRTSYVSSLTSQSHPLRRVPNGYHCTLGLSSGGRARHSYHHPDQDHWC
T1 sequence (P54284 whole entry partner): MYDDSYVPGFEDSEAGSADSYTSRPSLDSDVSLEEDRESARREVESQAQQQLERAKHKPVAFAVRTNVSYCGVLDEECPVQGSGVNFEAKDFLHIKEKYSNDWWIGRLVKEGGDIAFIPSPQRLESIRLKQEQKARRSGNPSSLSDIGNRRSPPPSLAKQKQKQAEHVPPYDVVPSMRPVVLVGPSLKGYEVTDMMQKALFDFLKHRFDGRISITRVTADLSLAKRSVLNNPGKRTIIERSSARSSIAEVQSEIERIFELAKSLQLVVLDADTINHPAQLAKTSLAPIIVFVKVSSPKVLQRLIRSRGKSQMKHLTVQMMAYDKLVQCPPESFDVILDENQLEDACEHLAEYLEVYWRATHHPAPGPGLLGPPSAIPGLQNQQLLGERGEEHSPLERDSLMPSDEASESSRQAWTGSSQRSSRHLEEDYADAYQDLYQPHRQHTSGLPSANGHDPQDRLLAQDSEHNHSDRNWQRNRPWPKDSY
T1 sequence (P54289 25-946 partner limits assumed): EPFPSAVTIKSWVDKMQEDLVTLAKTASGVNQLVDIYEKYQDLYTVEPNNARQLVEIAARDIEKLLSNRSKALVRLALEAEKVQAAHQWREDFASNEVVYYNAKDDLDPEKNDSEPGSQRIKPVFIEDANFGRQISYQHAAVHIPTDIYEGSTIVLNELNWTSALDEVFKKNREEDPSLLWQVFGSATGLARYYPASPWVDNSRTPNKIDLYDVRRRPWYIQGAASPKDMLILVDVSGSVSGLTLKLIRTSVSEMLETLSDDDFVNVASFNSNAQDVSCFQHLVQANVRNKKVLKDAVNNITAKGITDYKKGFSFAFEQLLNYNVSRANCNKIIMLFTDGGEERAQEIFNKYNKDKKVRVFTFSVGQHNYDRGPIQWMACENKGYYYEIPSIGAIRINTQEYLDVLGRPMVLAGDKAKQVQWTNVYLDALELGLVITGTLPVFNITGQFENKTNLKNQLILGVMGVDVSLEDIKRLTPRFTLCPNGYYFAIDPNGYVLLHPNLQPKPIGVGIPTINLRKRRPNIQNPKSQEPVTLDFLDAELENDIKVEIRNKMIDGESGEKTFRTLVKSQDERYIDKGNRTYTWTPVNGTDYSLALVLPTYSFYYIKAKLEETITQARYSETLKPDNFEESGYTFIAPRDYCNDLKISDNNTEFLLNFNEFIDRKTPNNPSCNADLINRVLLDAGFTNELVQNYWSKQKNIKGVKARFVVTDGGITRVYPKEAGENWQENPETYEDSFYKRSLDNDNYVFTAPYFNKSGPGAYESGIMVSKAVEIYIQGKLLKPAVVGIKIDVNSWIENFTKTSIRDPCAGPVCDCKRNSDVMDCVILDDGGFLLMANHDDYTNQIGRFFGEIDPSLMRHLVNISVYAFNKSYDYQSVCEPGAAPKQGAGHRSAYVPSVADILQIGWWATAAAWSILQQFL
T1 sequence (P54289 947-1103 partner limits assumed): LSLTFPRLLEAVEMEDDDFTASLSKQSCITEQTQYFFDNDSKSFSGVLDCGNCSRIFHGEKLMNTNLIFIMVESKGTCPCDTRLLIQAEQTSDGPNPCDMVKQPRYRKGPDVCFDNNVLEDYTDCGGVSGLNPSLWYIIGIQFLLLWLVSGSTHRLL

Row | IC50 (CaV2.2; Table 4) [nM] | IC50 (CaV3.1; Table 4) [nM] | IC50 (CaV3.2; Table 4) [nM] | IC50 (CaV2.2; Table 5) [nM] | IC50 (CaV3.1; Table 5) [nM] | IC50 (CaV3.2; Table 5) [nM] | Structure (SMILES)
1 | 510 | 2140 | 920 |  |  |  | O=C(NCc1ccc(S(=O)(=O)c2cccc(C(F)(F)F)c2)cc1)c1cnc(C(F)(F)F)nc1 [Compound 8, 2-(trifluoromethyl)-N-(4-((3-(trifluoromethyl)phenyl)sulfonyl)benzyl)pyrimidine-5-carboxamide]
2 | 220 | 3010 | 640 |  |  |  | Cn1nc(C(F)(F)F)cc1C(=O)NCc1cccc(S(=O)(=O)c2cccc(C(F)(F)F)c2)c1 [Compound 22, 1-methyl-3-(trifluoromethyl)-N-(3-((3-(trifluoromethyl)phenyl)sulfonyl)benzyl)-1H-pyrazole-5-carboxamide]
3 | 760 | 9070 | 2680 |  |  |  | CS(=O)(=O)c1nc(C(F)(F)F)ccc1C(=O)NCc1cccc(S(=O)(=O)c2cccc(C(F)(F)F)c2)c1 [Compound 21, 2-(methylsulfonyl)-6-(trifluoromethyl)-N-(3-((3-(trifluoromethyl)phenyl)sulfonyl)benzyl)nicotinamide]
4 | 170 | 1580 | 1740 |  |  |  | CC(C)S(=O)(=O)c1cc(C(F)(F)F)cnc1C(=O)NCc1cccc(S(=O)(=O)c2cccc(C(F)(F)F)c2)c1 [Compound 25, 3-(isopropylsulfonyl)-5-(trifluoromethyl)-N-(3-((3-(trifluoromethyl)phenyl)sulfonyl)benzyl)picolinamide]
5 | 450 | 1480 | 380 |  |  |  | O=C(NCc1ccc(S(=O)(=O)c2cccc(C(F)(F)F)c2)cc1)c1ccc(C(F)(F)F)cn1 [Compound 4, 5-(trifluoromethy)-N-(4-((3-(trifluoromethyl)phenyl)sulfonyl)benzyl)picolinamide]
6 | 940 | 1430 | 640 |  |  |  | O=C(NCc1ccc(S(=O)(=O)c2cccc(C(F)(F)F)c2)cc1)c1ccnc(C(F)(F)F)c1 [Compound 16, 2-(trifluoromethyl)-N-(4-((3-(trifluoromethyl)phenyl)sulfonyl)benzyl)isonicotinamide]
7 | 710 | 2340 | 1510 |  |  |  | CS(=O)(=O)c1nc(C(F)(F)F)ccc1C(=O)NCc1ccc(S(=O)(=O)c2cccc(C(F)(F)F)c2)cc1 [Compound 6, 2-(methylsulfonyl)-6-(trifluoromethyl)-N-(4-((3-(trifluoromethyl)phenyl)sulfonyl)benzyl)nicotinamide]
8 | 300 | 2020 | 740 |  |  |  | O=C(NCc1ccc(S(=O)(=O)c2cccc(C(F)(F)F)c2)cc1)c1cn2cc(C(F)(F)F)ccc2n1 [Compound 13, 6-(trifluoromethyl)-N-(4-((3-(trifluoromethyl)phenyl)sulfonyl)benzyl)imidazo[1,2-a]pyridine-2-carboxamide]
9 |  |  |  | 750 | 4250 | 5620 | CC(C)(C(=O)NCc1cccc(C(F)(F)F)c1)S(=O)(=O)c1cccc(C(F)(F)F)c1 [Compound 124, 2-methyl-N-(3-(trifluoromethyl)benzyl)-2-((3-(trifluoromethyl)phenyl)sulfonyl)propanamide]
10 |  |  |  | 110 | 1410 | 1200 | CC(C)(C(=O)NCc1cccc(S(=O)(=O)c2cccc(C(F)(F)F)c2)c1)S(=O)(=O)c1cccc(C(F)(F)F)c1 [Compound 226, 2-methyl-2-((3-(trifluoromethyl)phenyl)sulfonyl)-N-(3-((3-(trifluoromethyl)phenyl)sulfonyl)benzyl)propanamide]
11 | 840 | 1850 | 1290 |  |  |  | O=C(NCc1ccc(S(=O)(=O)c2cccc(C(F)(F)F)c2)cn1)c1ccc(C(F)(F)F)cn1 [Compound 91, 5-(trifluoromethyl)-N-((5-((3-(trifluoromethyl)phenyl)sulfonyl)pyridin-2-yl)methyl)picolinamide]

Continued, compound first:

Row | Structure (SMILES) | IC50 (CaV2.2; Table 4) [nM] | IC50 (CaV3.1; Table 4) [nM] | IC50 (CaV3.2; Table 4) [nM] | IC50 (CaV2.2; Table 5) [nM] | IC50 (CaV3.1; Table 5) [nM] | IC50 (CaV3.2; Table 5) [nM]
12 | CC(C)(C(=O)NCC(O)c1ccc(C(F)(F)F)cc1)S(=O)(=O)c1cccc(C(F)(F)F)c1 (stereo not drawn) [Compound 140, N-(2-hydroxy-2-(4-(trifluoromethyl)phenyl)ethyl)-2-methyl-2-((3-(trifluoromethyl)phenyl)sulfonyl)propanamide] |  |  |  | 410 | 8220 | 5090
13 | O=C(NCc1ccc(S(=O)(=O)c2cccc(C(F)(F)F)c2)cn1)c1ccc(Cl)c(F)c1 [Compound 88, 4-chloro-3-fluoro-N-((5-((3-(trifluoromethyl)phenyl)sulfonyl)pyridin-2-yl)methyl)benzamide] | 810 | 900 | 810 |  |  | 
14 | CC(C)(CCNC(=O)[C@@H]1C[C@@H](C2CCCCC2)CN1)S(=O)(=O)c1cccc(C(F)(F)F)c1 [Compound 218, (2S,4S)-4-cyclohexyl-N-(3-methyl-3-((3-(trifluoromethyl)phenyl)sulfonyl)butyl)pyrrolidine-2-carboxamide] |  |  |  | 740 | 5640 | 3210
15 | CC(C)(C(=O)N1CCC(c2ccc(C(F)(F)F)cc2)CC1)S(=O)(=O)c1cccc(C(F)(F)F)c1 [Compound 136, 2-methyl-1-(4-(4-(trifluoromethyl)phenyl)piperidin-1-yl)-2-((3-(trifluoromethyl)phenyl)sulfonyl)propan-1-one] |  |  |  | 390 | 4400 | 2440
16 | CC(C)(C(=O)N1CCN(c2cc(Cl)cc(Cl)c2)CC1)S(=O)(=O)c1cccc(C(F)(F)F)c1 [Compound 134, 1-(4-(3,5-dichlorophenyl)piperazin-1-yl)-2-methyl-2-((3-(trifluoromethyl)phenyl)sulfonyl)propan-1-one] |  |  |  | 1160 | 8690 | 7580
17 | CC(C)(CCN1CCn2nc(C(F)(F)F)cc2C1=O)S(=O)(=O)c1cccc(C(F)(F)F)c1 [Compound 187, 5-(3-methyl-3-((3-(trifluoromethyl)phenyl)sulfonyl)butyl)-2-(trifluoromethyl)-6,7-dihydropyrazolo[1,5-a]pyrazin-4(5H)-one] |  |  |  | 420 | 5050 | 4310
18 | O=C(NCc1ccccc1S(=O)(=O)c1cccc(C(F)(F)F)c1)c1ccc(C(F)(F)F)cn1 [Compound 39, 5-(trifluoromethyl)-N-(2-((3-(trifluoromethyl)phenyl)sulfonyl)benzyl)picolinamide] | 740 | 1040 | 1250 |  |  | 
19 | CC(C)(C(=O)N1CCN(c2cccc(C(F)(F)F)c2)CC1)S(=O)(=O)c1cccc(C(F)(F)F)c1 [Compound 132, 2-methyl-1-(4-(3-(trifluoromethyl)phenyl)piperazin-1-yl)-2-((3-(trifluoromethyl)phenyl)sulfonyl)propan-1-one] |  |  |  | 1210 | 4080 | 3630
20 | CC(C)S(=O)(=O)c1cc(C(F)(F)F)cnc1C(=O)NCc1ccccc1S(=O)(=O)c1cccc(C(F)(F)F)c1 [Compound 44, 3-(isopropylsulfonyl)-5-(trifluoromethyl)-N-(2-((3-(trifluoromethyl)phenyl)sulfonyl)benzyl)picolinamide] | 230 | 720 | 1030 |  |  | 
21 | CC(C)(CCNC(=O)C(C)(C)S(=O)(=O)c1cccc(C(F)(F)F)c1)S(=O)(=O)c1cccc(C(F)(F)F)c1 [Compound 150, 2-methyl-N-(3-methyl-3-((3-(trifluoromethyl)phenyl)sulfonyl)butyl)-2-((3-(trifluoromethyl)phenyl)sulfonyl)propanamide] |  |  |  | 250 | 1770 | 1020
